Reference: ChEMBL document CHEMBL5634133, “Indirubin derivatives as bifunctional molecules inducing DNA damage and targeting PARP for the treatment of cancer” (Eur J Med Chem, 2023)
Calls of active or inactive are those of the source. The rule behind the calls is not given here.

Legend:
NCM460 [1] = assay: Antiproliferative activity against human NCM460 cells assessed as inhibition of cell viability incubated for 72 hrs by CCK8 assay; assay type: functional, cell-based; details: NCM460, 72 h
A549 [2] = assay: Antiproliferative activity against human A549 cells assessed as inhibition of cell viability incubated for 72 hrs by CCK8 assay; assay type: functional, cell-based; details: A549, 72 h
MCF7 [3] = assay: Antiproliferative activity against human MCF7 cells assessed as inhibition of cell viability incubated for 72 hrs by CCK8 assay; assay type: functional, cell-based; details: MCF7, 72 h
MV4-11 [4] = assay: Antiproliferative activity against human MV4-11 cells assessed as inhibition of cell viability incubated for 72 hrs by CCK8 assay; assay type: functional, cell-based; details: MV4-11, 72 h
HCT-116 [5] = assay: Antiproliferative activity against human HCT-116 cells assessed as inhibition of cell viability incubated for 72 hrs by CCK8 assay; assay type: functional, cell-based; details: HCT-116, 72 h
HCT-116 [6] = assay: Antiproliferative activity against human HCT-116 cells assessed as inhibition of cell viability incubated for 72 hrs in presence of olaparib by CCK8 assay; assay type: functional, cell-based; details: HCT-116, 72 h
MV4-11 [7] = assay: Antiproliferative activity against human MV4-11 cells assessed as inhibition of cell viability incubated for 72 hrs in presence of olaparib by CCK8 assay; assay type: functional, cell-based; details: MV4-11, 72 h
MCF7 [8] = assay: Antiproliferative activity against human MCF7 cells assessed as inhibition of cell viability incubated for 72 hrs in presence of olaparib by CCK8 assay; assay type: functional, cell-based; details: MCF7, 72 h
A549 [9] = assay: Antiproliferative activity against human A549 cells assessed as inhibition of cell viability incubated for 72 hrs in presence of olaparib by CCK8 assay; assay type: functional, cell-based; details: A549, 72 h
NCM460 [10] = assay: Antiproliferative activity against human NCM460 cells assessed as inhibition of cell viability incubated for 72 hrs in presence of olaparib by CCK8 assay; assay type: functional, cell-based; details: NCM460, 72 h
HCT-116 [11] = assay: Antiproliferative activity against human HCT-116 cells assessed as inhibition of cell viability incubated for 72 hrs in presence of Niraparib by CCK8 assay; assay type: functional, cell-based; details: HCT-116, 72 h
MV4-11 [12] = assay: Antiproliferative activity against human MV4-11 cells assessed as inhibition of cell viability incubated for 72 hrs in presence of Niraparib by CCK8 assay; assay type: functional, cell-based; details: MV4-11, 72 h
MCF7 [13] = assay: Antiproliferative activity against human MCF7 cells assessed as inhibition of cell viability incubated for 72 hrs in presence of Niraparib by CCK8 assay; assay type: functional, cell-based; details: MCF7, 72 h
A549 [14] = assay: Antiproliferative activity against human A549 cells assessed as inhibition of cell viability incubated for 72 hrs in presence of Niraparib by CCK8 assay; assay type: functional, cell-based; details: A549, 72 h
NCM460 [15] = assay: Antiproliferative activity against human NCM460 cells assessed as inhibition of cell viability incubated for 72 hrs in presence of Niraparib by CCK8 assay; assay type: functional, cell-based; details: NCM460, 72 h
HCT-116 [16] = assay: Antiproliferative activity against human HCT-116 cells assessed as combination index incubated for 72 hrs in presence of olaparib by CCK8 assay; assay type: functional
MV4-11 [17] = assay: Antiproliferative activity against human MV4-11 cells assessed as combination index incubated for 72 hrs in presence of olaparib by CCK8 assay; assay type: functional
MCF7 [18] = assay: Antiproliferative activity against human MCF7 cells assessed as combination index incubated for 72 hrs in presence of olaparib by CCK8 assay; assay type: functional
A549 [19] = assay: Antiproliferative activity against human A549 cells assessed as combination index incubated for 72 hrs in presence of olaparib by CCK8 assay; assay type: functional
NCM460 [20] = assay: Antiproliferative activity against human NCM460 cells assessed as combination index incubated for 72 hrs in presence of olaparib by CCK8 assay; assay type: functional
HCT-116 [21] = assay: Antiproliferative activity against human HCT-116 cells assessed as combination index incubated for 72 hrs in presence of Niraparib by CCK8 assay; assay type: functional
MV4-11 [22] = assay: Antiproliferative activity against human MV4-11 cells assessed as combination index incubated for 72 hrs in presence of Niraparib by CCK8 assay; assay type: functional
MCF7 [23] = assay: Antiproliferative activity against human MCF7 cells assessed as combination index incubated for 72 hrs in presence of Niraparib by CCK8 assay; assay type: functional
A549 [24] = assay: Antiproliferative activity against human A549 cells assessed as combination index incubated for 72 hrs in presence of Niraparib by CCK8 assay; assay type: functional
NCM460 [25] = assay: Antiproliferative activity against human NCM460 cells assessed as combination index incubated for 72 hrs in presence of Niraparib by CCK8 assay; assay type: functional
HCT-116 [26] = assay: Antitumor activity against human HCT-116 cells xenografted in BALB/c nude mouse assessed as tumor growth inhibition at 20 mg/kg, ip administered for 14 days relative to control; assay type: functional; details: Mus musculus, HCT-116, 336 h, time 14 day, read-out: TGI
HCT-116 [27] = assay: Antitumor activity against human HCT-116 cells xenografted in BALB/c nude mouse assessed as tumor growth inhibition at 20 mg/kg, ip administered for 14 days in presence of Olaparib relative to control; assay type: functional; details: HCT-116, 336 h, time 14 day, read-out: TGI
HCT-116 [28] = assay: Induction of DNA damage in human HCT-116 cells assessed as increase in gammaH2AX protein level at 1 uM incubated for 48 hrs in presence of Olaparib by Western blotting analysis; assay type: functional, cell-based

## O=C1Nc2ccccc2/C1=C1/Nc2ccccc2/C1=N\O
NCM460 [1]
  IC50: 13.1 µM
A549 [2]
  IC50: 8.21 µM
MCF7 [3]
  IC50: 4.1 µM
MV4-11 [4]
  IC50: 6.01 µM
HCT-116 [5]
  IC50: 3.88 µM
HCT-116 [6]
  IC50: 1.37 µM
MV4-11 [7]
  IC50: 2.36 µM
MCF7 [8]
  IC50: 2.33 µM
A549 [9]
  IC50: 6.06 µM
NCM460 [10]
  IC50: 20.2 µM
HCT-116 [11]
  IC50: 0.83 µM
MV4-11 [12]
  IC50: 1.69 µM
MCF7 [13]
  IC50: 1.41 µM
A549 [14]
  IC50: 4.17 µM
NCM460 [15]
  IC50: 21.1 µM
HCT-116 [16]
  CI: 0.47
MV4-11 [17]
  CI: 0.57
MCF7 [18]
  CI: 0.59
A549 [19]
  CI: 0.94
NCM460 [20]
  CI: 0.92
HCT-116 [21]
  CI: 0.67
MV4-11 [22]
  CI: 0.72
MCF7 [23]
  CI: 0.47
A549 [24]
  CI: 0.84
NCM460 [25]
  CI: 1
HCT-116 [26]
  inhibition in vivo at 20 mg/kg: 47.4%
HCT-116 [27]
  inhibition in vivo at 20 mg/kg: 64.6%
HCT-116 [28]
  Activity: Active
